From ChEMBL document CHEMBL4715696, “In vitro synergistic anticancer activity of the combination of T-type calcium channel blocker and chemotherapeutic agent in A549 cells” (Bioorg Med Chem Lett, 2016)

Key:
A549 [1] = experiment: Induction of cell cycle arrest in human A549 cells assessed as decrease in cell accumulation at S phase after 48 hrs by flow cytometric analysis; type: functional, cell-based; details: dose 2.5-10 µM
[2] = Solubility of the compound at pH 7.4; type: physicochemical; details: buffer
[3] = Upregulation of p27KIP1 protein expression in human A549 cells assessed as fold change in expression at 10 uM after 24 hrs by Western blot analysis (reference value: 0.83); type: functional
A549 [4] = experiment: Decrease in cell cycle associated protein expression in human A549 cells assessed as fold change in CDK2 expression at 10 uM after 6 hrs by Western blot analysis (reference value: 0.79); type: functional
A549 [5] = experiment: Potentiation of etoposide-induced cell cycle arrest in human A549 cells assessed as accumulation at G1 phase at 2.5 uM in presence of etoposide after 48 hrs by flow cytometric analysis (reference value: 36%); type: functional
A549 [6] = experiment: Potentiation of cisplatin-induced cell cycle arrest in human A549 cells assessed as accumulation at G2/M phase at 2.5 uM in presence of cisplatin after 48 hrs by flow cytometric analysis (Rvb =52.9%); type: functional
A549 [7] = experiment: Decrease in cell cycle associated protein expression in human A549 cells assessed as fold change in cyclin D3 expression at 10 uM after 48 hrs by Western blot analysis (reference value: 0.73 to 1.09); type: functional
A549 [8] = experiment: Decrease in cell cycle associated protein expression in human A549 cells assessed as fold change in cyclin E expression at 5 uM after 48 hrs by Western blot analysis (reference value: 0.37); type: functional
[9] = Increase in recruitment of […] p27KIP1 to CDK4 in human A549 cells assessed as fold change at 10 uM incubated for 12 hrs by immunoprecipitation/immunoblot analysis (reference value: 0.16); type: functional
A549 [10] = experiment: Induction of cell cycle arrest in human A549 cells assessed as accumulation at G2/M phase at 5 uM after 48 hrs by flow cytometric analysis (reference value: 22.1 to 25.4 %); type: functional
A549 [11] = experiment: Potentiation of etoposide-induced cell cycle arrest in human A549 cells assessed as accumulation at G2/M phase at 2.5 uM in presence of etoposide after 48 hrs by flow cytometric analysis (Rvb =18.9%); type: functional
A549 [12] = experiment: Cytotoxicity against human A549 cells assessed as reduction in cell viability by MTT assay; type: functional, cell-based
A549 [13] = experiment: Induction of cell cycle arrest in human A549 cells assessed as accumulation at S phase at 2.5 uM after 48 hrs by flow cytometric analysis (Rvb =10.4%); type: functional
A549 [14] = experiment: Induction of cell cycle arrest in human A549 cells assessed as accumulation at G1 phase at 5 uM after 24 hrs by flow cytometric analysis (reference value: 53.1%); type: functional
CYP2C9 = CYP2C9 (Homo sapiens, UniProt P11712); experiment: Inhibition of human CYP2C9 assessed as residual activity at 10 uM measured after 15 mins relative to control; type: ADME; details: read-out: Activity
[15] = Metabolic stability in rat plasma assessed as parent compound remaining at 10 uM measured after 1 hr; type: ADME, cell-free; details: read-out: Stabilty
A549 [16] = experiment: Potentiation of etoposide-induced cell cycle arrest in human A549 cells assessed as accumulation at S phase at 2.5 uM in presence of etoposide after 48 hrs by flow cytometric analysis (Rvb =12.3%); type: functional
A549 [17] = experiment: Induction of cell cycle arrest in human A549 cells assessed as accumulation at G2/M phase at 2.5 uM after 48 hrs by flow cytometric analysis (Rvb =22.1%); type: functional
[18] = Metabolic stability in rat plasma assessed as parent compound remaining at 10 uM measured after 2 hrs; type: ADME, cell-free; details: read-out: Stabilty
A549 [19] = experiment: Decrease in cell cycle associated protein expression in human A549 cells assessed as reduction in CDK6 expression at 10 uM by Western blot analysis; type: functional, cell-based; details: time 6-48 hrs, TDE = time-dependent effect
A549 [20] = experiment: Decrease in cell cycle associated protein expression in human A549 cells assessed as fold change in cyclin E expression at 10 uM after 36 hrs by Western blot analysis (reference value: 0.55); type: functional
A549 [21] = experiment: Potentiation of etoposide-induced cell cycle arrest in human A549 cells assessed as accumulation at sub G1 phase at 5 uM in presence of etoposide after 48 hrs by flow cytometric analysis (Rvb =33 %); type: functional
A549 [22] = experiment: Decrease in cell cycle associated protein expression in human A549 cells assessed as fold change in CDK6 expression at 10 uM after 6 hrs by Western blot analysis (reference value: 0.7); type: functional
A549 [23] = experiment: Decrease in cell cycle associated protein expression in human A549 cells assessed as fold change in CDK6 expression at 10 uM after 36 hrs by Western blot analysis (reference value: 0.7); type: functional
[24] = Metabolic stability in human plasma assessed as parent compound remaining at 10 uM measured after 2 hrs; type: ADME, cell-free; details: read-out: Stabilty
A549 [25] = experiment: Potentiation of etoposide-induced cell cycle arrest in human A549 cells assessed as accumulation at G1 phase at 10 uM in presence of etoposide after 48 hrs by flow cytometric analysis (reference value: 36%); type: functional
A549 [26] = experiment: Induction of cell cycle arrest in human A549 cells assessed as accumulation at G1 phase at 2.5 uM after 48 hrs by flow cytometric analysis (Rvb =65.5%); type: functional
[27] = Metabolic stability in human plasma assessed as parent compound remaining at 10 uM measured after 1 hr; type: ADME, cell-free; details: read-out: Stabilty
A549 [28] = experiment: Decrease in cell cycle associated protein expression in human A549 cells assessed as reduction in CDK4 expression after 48 hrs by Western blot analysis; type: functional, cell-based; details: dose 2.5-10 µM
A549 [29] = experiment: Decrease in cell cycle associated protein expression in human A549 cells assessed as fold change in CDK6 expression at 10 uM after 48 hrs by Western blot analysis (reference value: 0.7 to 1.05); type: functional
A549 [30] = experiment: Decrease in cell cycle associated protein expression in human A549 cells assessed as fold change in CDK2 expression at 10 uM after 48 hrs by Western blot analysis (reference value: 0.48 to 0.79); type: functional
[31] = Upregulation of p27KIP1 protein expression in human A549 cells assessed as fold change in expression at 10 uM after 6 hrs by Western blot analysis (reference value: 0.83); type: functional
CYP2D6 = CYP2D6 (Homo sapiens, UniProt P10635); experiment: Inhibition of human CYP2D6 assessed as residual activity at 10 uM measured after 15 mins relative to control; type: ADME; details: read-out: Activity
A549 [32] = experiment: Decrease in cell cycle associated protein expression in human A549 cells assessed as fold change in CDK4 expression at 2.5 uM after 48 hrs by Western blot analysis (reference value: 0.62); type: functional

Chain of CYP2C9 (P11712 whole entry): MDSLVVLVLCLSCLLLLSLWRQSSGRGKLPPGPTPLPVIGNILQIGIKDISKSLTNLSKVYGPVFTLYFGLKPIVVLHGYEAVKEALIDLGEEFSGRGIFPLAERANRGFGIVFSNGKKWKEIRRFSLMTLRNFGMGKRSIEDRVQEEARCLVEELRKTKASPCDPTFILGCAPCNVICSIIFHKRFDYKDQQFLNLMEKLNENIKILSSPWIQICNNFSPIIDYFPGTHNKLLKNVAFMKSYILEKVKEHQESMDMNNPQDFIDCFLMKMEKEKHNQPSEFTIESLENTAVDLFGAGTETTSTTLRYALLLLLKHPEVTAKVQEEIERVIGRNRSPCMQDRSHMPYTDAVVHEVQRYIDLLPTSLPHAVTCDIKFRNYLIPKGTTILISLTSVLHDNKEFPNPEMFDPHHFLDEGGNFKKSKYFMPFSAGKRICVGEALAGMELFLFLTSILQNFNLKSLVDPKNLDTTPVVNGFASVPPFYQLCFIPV
Chain of CYP2D6 (P10635 whole entry): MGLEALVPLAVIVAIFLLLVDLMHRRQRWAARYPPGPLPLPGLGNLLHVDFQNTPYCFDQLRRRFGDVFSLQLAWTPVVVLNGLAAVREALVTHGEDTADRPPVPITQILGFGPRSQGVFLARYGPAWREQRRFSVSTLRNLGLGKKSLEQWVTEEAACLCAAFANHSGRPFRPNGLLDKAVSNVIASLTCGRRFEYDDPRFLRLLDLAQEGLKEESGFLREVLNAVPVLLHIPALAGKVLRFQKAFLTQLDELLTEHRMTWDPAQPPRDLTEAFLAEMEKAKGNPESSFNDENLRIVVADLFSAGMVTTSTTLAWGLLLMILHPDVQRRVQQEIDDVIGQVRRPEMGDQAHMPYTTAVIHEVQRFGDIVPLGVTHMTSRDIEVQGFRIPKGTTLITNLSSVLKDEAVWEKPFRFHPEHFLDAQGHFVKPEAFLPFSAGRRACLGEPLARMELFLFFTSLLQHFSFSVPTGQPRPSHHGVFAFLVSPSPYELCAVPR

In the case of CN(C)C(=O)NCCCN(C)C1=Nc2ccccc2C(CC(=O)NCc2ccc(F)cc2)N1c1ccc(C2CCCCC2)cc1 (centres undefined), the Activity (A549 [1]) is reported as “Dose-dependent effect”, the solubility [2] is reported as less than 1000 µg/mL and the “fold change (FC)” value [3] is reported as 1.05. For the same compound, the “fold change (FC)” value (A549 [4]) was 0.91, the Activity (A549 [5]) was 34.3% and the Activity (A549 [6]) was 43%. For the same compound, the “fold change (FC)” value (A549 [7]) was 0.55, the “fold change (FC)” value (A549 [8]) was 0.49 and the “fold change (FC)” value [9] was 0.62. It also gave an Activity (A549 [10]) of 14.3%, an Activity (A549 [11]) of 18.5% and an IC50 (A549 [12]) of 7.3 µM. It also gave an Activity (A549 [13]) of 8.8%, an Activity (A549 [14]) of 63.6% and an activity at 0.25 h, 10 µM (CYP2C9) of 89.8%. It also gave a remaining at 1 h, 10 µM [15] of 22%, an Activity (A549 [16]) of 10.7% and an Activity (A549 [17]) of 19.4%. For the same compound, the remaining at 2 h, 10 µM [18] was 24.8%, the Activity (A549 [19]) was “Tde” and the “fold change (FC)” value (A549 [20]) was 0.18. For the same compound, the Activity (A549 [21]) was 43.4%, the “fold change (FC)” value (A549 [22]) was 0.7 and the “fold change (FC)” value (A549 [23]) was 0.38. For the same compound, the remaining at 2 h, 10 µM [24] was 57.6%, the Activity (A549 [25]) was 7.9% and the Activity (A549 [26]) was 69.3%. The remaining at 1 h, 10 µM [27] was 85.1%, the Activity (A549 [28]) was “Dose-dependent effect” and the “fold change (FC)” value (A549 [29]) was 0.14. The “fold change (FC)” value (A549 [30]) was 0.26, the “fold change (FC)” value [31] was 0.3 and the activity at 0.25 h, 10 µM (CYP2D6) was 78.3%. For the same compound, the “fold change (FC)” value (A549 [32]) was 0.71.
